Reference: patent US11878074B2, “Methods of use of emulsion formulations of an NK-1 receptor antagonist” (Heron Therapeutics, Inc., priority 2016, dated 2024)

Assay: Pharmacokinetics of aprepitant emulsion, intravenous injection, plasma LC-MS/MS
Type: in vivo, Sprague-Dawley rats
Conditions: rat, i.v., equivalent to 14 mg/kg aprepitant, by the 3-hour time point
Protocol: Blood from all rats was collected at the appropriate time intervals and processed to plasma by centrifugation. Plasma samples were analyzed by LC-MS/MS for aprepitant and fosaprepitant, as appropriate. […] The curves indicate the initial aprepitant level reached immediately after injection of the aprepitant emulsion was almost 3 times higher than the initial aprepitant level reached immediately after injection of the fosaprepitant solution.

C[C@@H](O[C@H]1OCCN(Cc2nc(O)n(P(=O)(O)O)n2)[C@H]1c1ccc(F)cc1)c1cc(C(F)(F)F)cc(C(F)(F)F)c1 [fosaprepitant]
Plasma levels of aprepitant, emulsion versus fosaprepitant solution: essentially the same
